Source: patent US11001564B2, “Substituted chromane-8-carboxamide compounds and analogues thereof, and methods using same” (priority 2016, dated 2021)
Structures can show the parent of a compound that is named as a salt. Where two headings read alike, the source gives them in different places.

System: HBV rcDNA in HepDE19 cells
Experiment: HepDE19 assay with bDNA quantitation of HBV rcDNA
Assay type: cell-based, hepatitis B virus (HBV)
Procedure, shortened: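 HepG2-derived HepDE19 cells, switched to Tet-free medium, were exposed 7 days at 37 °C to compound (8-point ½-log series from 25 μM, 0.5% DMSO). HBV rcDNA measured by bDNA assay with HBV-specific probes; EC50/EC90 by 4-parameter fit. CC50 from CellTiter-Glo ATP on replicate plates after 4 days.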

[1] = Hepatitis B virus, HepDE19, 168 h, HepDE19 cells, 7 day incubation, rcDNA by Quantigene 2.0 bDNA assay, read-out: DE-19 bDNA EC50
[2] = Hepatitis B virus, HepDE19, 168 h, read-out: DE-19 bDNA EC50, HepDE19 cells, 7 day incubation, rcDNA by Quantigene 2.0 bDNA assay

SMILES	EC50 [1]	other results
O=C(Nc1ccc(F)c(F)c1)c1ccc(F)c2c1OCCC2=O [Compound 60, N-(3,4-difluorophenyl)-5-fluoro-4-oxochromane-8-carboxamide]	3.9 µM	–
Cc1cc(NC(=O)c2ccc(F)c3c2OCC[C@@H]3NC(=O)OCc2ccccn2)ccc1F [Compound 113, Pyridin-2-ylmethyl (S)-(5-fluoro-8-((4-fluoro-3-methylphenyl)carbamoyl)chroman-4-yl)carbamate]	0.56 µM	–
O=C(N[C@H]1CCOc2c(C(=O)Nc3ccc(F)c(Cl)c3)cccc21)OCc1ccccn1 [Compound 51, Pyridin-2-ylmethyl (S)-(8-((3-chloro-4-fluorophenyl)carbamoyl)chroman-4-yl)carbamate hydrochloride]	–	EC50 [2]: 1.2 µM
Cc1cc(NC(=O)c2ccc(F)c3c2OCC[C@@H]3NC(=O)OCc2cccc(N3CCOCC3)n2)ccc1F [Compound 167, (6-Morpholinopyridin-2-yl)methyl (S)-(5-fluoro-8-((4-fluoro-3-methylphenyl)carbamoyl)chroman-4-yl)carbamate]	1.8 µM	–
C[C@H](OC(=O)N[C@H]1CCOc2c(C(=O)Nc3ccc(F)c(F)c3)cccc21)c1ccccn1 [Compound 61, (S)-1-(Pyridin-2-yl)ethyl ((S)-8-((3,4-difluorophenyl)carbamoyl)chroman-4-yl)carbamate hydrochloride]	–	EC50 [2]: 4 µM
O=C1CC[C@@H](COC(=O)N[C@H]2CCOc3c(C(=O)Nc4ccc(F)c(F)c4)cccc32)N1 [Compound 118, ((S)-5-Oxopyrrolidin-2-yl)methyl ((S)-8-((3,4-difluorophenyl)carbamoyl)chroman-4-yl)carbamate]	3.6 µM	–
O=C1CCOc2c1ccc(Cl)c2C(=O)Nc1ccc(F)c(F)c1 [Compound 77, 7-chloro-N-(3,4-difluorophenyl)-4-oxochromane-8-carboxamide]	23 µM	–
O=C(N[C@H]1CCOc2c1ccc(Cl)c2C(=O)Nc1ccc(F)c(F)c1)OCc1ccccn1 [Compound 90, Pyridin-2-ylmethyl (S)-(7-chloro-8-((3,4-difluorophenyl)carbamoyl)chroman-4-yl)carbamate]	8.4 µM	–
O=C1CCOc2c1ccc(F)c2C(=O)Nc1ccc(F)c(Cl)c1 [Compound 65, N-(3-chloro-4-fluorophenyl)-7-fluoro-4-oxochromane-8-carboxamide]	4.1 µM	–
COC(=O)NC1CCN(C)c2c(C(=O)Nc3ccc(F)c(Cl)c3)cccc21 (single isomer, unassigned) [Compound 178, Methyl (8-((3-chloro-4-fluorophenyl)carbamoyl)-1-methyl-1,2,3,4-tetrahydroquinolin-4-yl)carbamate]	–	EC50 (read-out: DE-19 bDNA EC50, HepDE19 cells, 7 day incubation, rcDNA by Quantigene 2.0 bDNA assay): 13 µM
O=C(Nc1ccc(F)c(F)c1)c1ccc(F)c2c1OCC[C@@H]2Nc1ncccn1 [Compound 89, (S)—N-(3,4-Difluorophenyl)-5-fluoro-4-(pyrimidin-2-ylamino)chromane-8-carboxamide]	1.1 µM	–
COC(=O)N[C@H]1CCOc2c(C(=O)Nc3cccc(Cl)c3)cccc21 [Compound 37, Methyl (S)-(8-((3-chlorophenyl)carbamoyl)chroman-4-yl)carbamate]	2.8 µM	–
Cc1cc(NC(=O)c2ccc(F)c3c2OCC[C@@H]3NC(=O)OCCc2ccccn2)ccc1F [Compound 138, 2-(Pyridin-2-yl)ethyl (S)-(5-fluoro-8-((4-fluoro-3-methylphenyl)carbamoyl)chroman-4-yl)carbamate]	0.6 µM	–
Cc1cc(NC(=O)c2ccc(F)c3c2OCC[C@@H]3NC(=O)OC[C@H]2CCC(=O)N2)ccc1F [Compound 136, ((R)-5-Oxopyrrolidin-2-yl)methyl ((S)-5-fluoro-8-((4-fluoro-3-methylphenyl)carbamoyl)chroman-4-yl)carbamate]	1.2 µM	–
O=C(N[C@H]1CCOc2c(C(=O)Nc3ccc(F)c(F)c3)ccc(F)c21)OCc1ccccn1 [Compound 93, Pyridin-2-ylmethyl (S)-(8-((3,4-difluorophenyl)carbamoyl)-5-fluorochroman-4-yl)carbamate]	0.85 µM	–
O=C(Nc1ccc(F)c(F)c1)c1cccc2c1OCC[C@@H]2Nc1ncccn1 [Compound 42, (S)-N-(3,4-difluorophenyl)-4-(pyrimidin-2-ylamino) chromane-8-carboxamide]	3.4 µM	–
O=C1CCOc2c1ccc(F)c2C(=O)Nc1ccc(F)c(F)c1 [Compound 64, N-(3,4-difluorophenyl)-7-fluoro-4-oxochromane-8-carboxamide]	3.8 µM	–
O=C(N[C@H]1CCOc2c(C(=O)Nc3ccc(F)c(F)c3)cccc21)OCc1ccncn1 [Compound 66, Pyrimidin-4-ylmethyl (S)-(8-((3,4-difluorophenyl)carbamoyl)chroman-4-yl)carbamate]	3.5 µM	–
Cc1cc(NC(=O)c2ccc(F)c3c2OCC[C@@H]3NC(=O)OCc2ccncn2)ccc1F [Compound 130, Pyrimidin-4-ylmethyl (S)-(5-fluoro-8-((4-fluoro-3-methylphenyl)carbamoyl)chroman-4-yl)carbamate]	0.62 µM	–
Cc1cc(NC(=O)c2ccc(F)c3c2OCC[C@@H]3NC(=O)OC[C@H]2CCCC(=O)N2)ccc1F [Compound 142, ((R)-6-Oxopiperidin-2-yl)methyl ((S)-5-fluoro-8-((4-fluoro-3-methylphenyl)carbamoyl)chroman-4-yl)carbamate]	0.73 µM	–
O=C(N[C@H]1CCOc2c(C(=O)Nc3ccc(F)c(F)c3)cccc21)OCC1CCCCN1 (single isomer, unassigned) [Compound 85]	19 µM	–
Nc1cc(C(=O)Nc2ccc(F)c(F)c2)c2c(c1)[C@@H](NC(=O)OCc1ccccn1)CCO2 [Compound 157, Pyridin-2-ylmethyl (S)-(6-amino-8-((3,4-difluorophenyl)carbamoyl)chroman-4-yl)carbamate]	11 µM	–
O=C(N[C@H]1CCOc2c(C(=O)Nc3ccc(F)c(F)c3)c(F)cc(F)c21)OCc1ccccn1 [Compound 124, pyridin-2-ylmethyl (S)-(8-((3,4-difluorophenyl)carbamoyl)-5,7-difluorochroman-4-yl)carbamate]	25 µM	–
O=C(N[C@H]1CCOc2c(C(=O)Nc3ccc(F)c(Cl)c3)ccc(F)c21)OCC1CCN(C(=O)CO)CC1 [Compound 164, (1-(2-Hydroxyacetyl)piperidin-4-yl)methyl (S)-(8-((3-chloro-4-fluorophenyl)carbamoyl)-5-fluorochroman-4-yl)carbamate]	–	EC50 [2]: 0.68 µM
O=C(N[C@H]1CCOc2c(C(=O)Nc3ccc(F)c(F)c3)cccc21)c1cncs1 [Compound 12, N-(8-((3,4-difluorophenyl)carbamoyl)chroman-4-yl)thiazole-5-carboxamide]	8.3 µM	–
O=C1CC[C@H](COC(=O)N[C@H]2CCOc3c(C(=O)Nc4ccc(F)c(F)c4)cccc32)N1 [Compound 119, ((R)-5-Oxopyrrolidin-2-yl)methyl ((S)-8-((3,4-difluorophenyl)carbamoyl)chroman-4-yl)carbamate]	8.7 µM	–
CNC(=O)N[C@H]1CCOc2c(C(=O)Nc3ccc(F)c(C)c3)ccc(F)c21 [Compound 122, (S)-5-fluoro-N-(4-fluoro-3-methylphenyl)-4-(3-methylureido)chromane-8-carboxamide]	–	EC50 [2]: 0.32 µM
O=C(N[C@H]1CCOc2c(C(=O)Nc3ccc(F)c(F)c3)cccc21)OCc1ccncc1 [Compound 29, Pyridin-4-ylmethyl-(8-((3,4-difluorophenyl)carbamoyl)chroman-4-yl)carbamate]	2.2 µM	–
